Each block holds one compound with its values, some of them ahead of it.
Legend:
DLD-1 = experiment: Antiproliferative activity against human DLD-1 cells assessed as inhibition of cell growth incubated for 72 hrs by MTS assay; format: functional, cell-based; conditions: DLD-1, 72 h
HT-1080 = experiment: Cytotoxicity against human HT-1080 cells assessed as reduction in cell viability incubated for 48 hrs by MTT assay; format: functional, cell-based; conditions: HT-1080, 48 h
GTPase KRas [1] = molecular target: GTPase KRas (Homo sapiens, UniProt P01116, G12D); experiment: Binding affinity to KRAS G12D mutant (unknown origin) assessed as dissociation constant by SPR analysis
GTPase KRas [2] = molecular target: GTPase KRas (Homo sapiens, UniProt P01116, G12C); experiment: Inhibition of KRAS G12C mutant in human NCI-H358 cells incubated for 24 hrs by Western blot analysis; format: cell-based
NCI-H358 = experiment: Antiproliferative activity against human NCI-H358 cells assessed as reduction in cell viability; format: functional, cell-based
MIA PaCa-2 = experiment: Antiproliferative activity against human MIA PaCa-2 cells assessed as reduction in cell viability; format: functional, cell-based

Chain of GTPase KRas (Homo sapiens, UniProt P01116, G12C) (P01116 whole entry G12C): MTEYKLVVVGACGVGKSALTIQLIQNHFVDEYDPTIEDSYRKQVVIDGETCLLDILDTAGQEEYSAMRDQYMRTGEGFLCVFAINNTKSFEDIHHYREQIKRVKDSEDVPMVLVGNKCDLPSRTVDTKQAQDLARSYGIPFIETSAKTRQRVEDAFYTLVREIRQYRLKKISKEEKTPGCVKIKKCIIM
Chain of GTPase KRas (Homo sapiens, UniProt P01116, G12D) (P01116 whole entry G12D): as the sequence (P01116 whole entry G12C) above, with C12D counted along it

Compound: COc1nc(-c2cccc3c2OCCO3)ccc1Nc1ccc(CN(C)C)cc1
- IC50 (DLD-1): 8000 nM
- IC50 (HT-1080): 10000 nM
- Kd (GTPase KRas [1]): 51 nM

- IC50 (GTPase KRas [2]): 1000 nM
Compound: NC1(C(=O)NCCCn2cc(-c3ccc(OC(F)(F)F)cc3)c3cc(CN4CCN(Cc5c(Cl)cccc5Cl)CC4)ccc32)CCNCC1

- IC50 (GTPase KRas [2]): 3.35 nM
Compound: C=CC(=O)N1CCN2C(=O)Cc3cc(F)c(-c4ccc(F)c5sc(N)c(C#N)c45)c(Cl)c3OCC2C1 (stereo not drawn)

Compound: C=CC(=O)N1CC2(CC(n3nc(-c4ccc5c(cnn5C)c4)c(-c4c(Cl)c(C)cc5[nH]ncc45)c3C)C2)C1 [OPNURASIB]
- IC50 (NCI-H358): 18 nM
- IC50 (GTPase KRas [2]): 10 nM

Compound: C=CC(=O)N1CCN(c2nc(=O)n(-c3c(C)ccnc3C(C)C)c3nc(-c4c(O)cccc4F)c(F)cc23)[C@@H](C)C1 [SOTORASIB]
- IC50 (MIA PaCa-2): 100 nM

From ChEMBL document CHEMBL6078623, “Structural insights into small-molecule KRAS inhibitors for targeting KRAS mutant cancers” (Eur J Med Chem, 2024)
